Assays:
[1] = test system: androgen receptor in LAPC-4 prostate cancer cells; test: Western blot of androgen receptor in LAPC-4 cells; assay type: cell-based; conditions: LAPC-4 cells (wild type androgen receptor), 24 hours
Experimental: FIG. 3 (top panel) is a western blot analysis of prostate cancer LNCaP cells treated with KU-1/A4. The bottom panel is a western blot analysis of prostate cancer LAPC-4 cells incubated with KU-1/A4. Actin was used as a control in both assays. […] Western blot analysis of the effects of KU-1/A4 on Hsp90 client proteins in prostate cancer LNCaP cells. Cells were treated with varying concentrations of KU-1/A4 for 24 hours and probed for the androgen receptor (“AR”), protein kinase […] (“AKT”), Hsp90, and actin.
The steroid hormone receptors are also dependent upon the Hsp90 protein folding machinery for activation and hormone binding. To determine whether KU-1/A4 had similar effects on the androgen receptor, KU-1/A4 was tested in both a mutated androgen receptor-dependent prostate cancer cell line (LNCaP) and a wild type androgen receptor prostate cancer cell line (LAPC-4). More specifically, the prostate cancer cells were grown in RPMI with 10% fetal calf serum in a standard fashion. Once the cells had reached near confluence, they were treated with vehicle (DMSO) or varying concentrations of KU-1/A4 ranging from 10 nm to 100 μM for 24 hours. Cells were harvested and cell lysates prepared. […] More specifically, Western Blot analysis protein concentrations in serum samples were determined by the Pierce BCA protein assay kit according to the manufacturer's protocol. […]

primary cortical neurons = test: Toxicity of drug alone in neuronal cells (Live-Dead assay); assay type: cell-based
Excerpt: More specifically, primary cortical neurons were recovered from embryonic day 18 rat brains as described previously (Michaelis et al., Immunological Localization And Kinetic Characterization Of A Na+/Ca2+Exchanger In Neuronal And Nonneuronal Cells, Brain Res. 661 104-116 (1994)). Briefly, about 10 to 16 brains were removed from fetuses delivered by cesarean section, and the cortices dissected out. The neurons were isolated and suspended in DMEM/F12 supplemented with 10% FBS and plated on sterile dishes or cover slips coated with 10 μg/ml poly-D-lysine and 5 μg/ml mouse laminin. After 24 hours, the serum-containing medium was removed, and neurons were maintained in Neurobasal medium (Gibco) with 2% B-27 supplements (Gibco). Cells were maintained in culture at 37° C. in 5% CO2 and 97% humidity for 7 to 8 eight days in vitro (DIV) before use. […] Stock solutions of Aβ were prepared in sterile water at a concentration of 1.3 mM and stored at −20° C. Aliquots of the stock solutions were diluted to 1 mM in sterile 50 mM Tris-HCl, pH 7.4, and incubated at 37° C. for 24 hours to promote oligomerization of the peptides prior to treatment of the neurons. The effects of KU-1/A4, GA, Aβ, or the indicated combinations on neuronal viability were determined by monitoring cell survival using the Live-Dead assay as previously described. […] Digital images from 6 fields per dish were captured, and the number of viable (green) and dead (red) cells counted. All experiments were conducted with duplicate dishes from at least two neuronal preparations for each treatment, with about 1,000 cells analyzed/treatment condition. The data are expressed as the fraction of viable cells calculated from the total number of neurons counted under each treatment condition. The significance of differences between cultures exposed to various treatment conditions was determined using Student's t-test.

[2] = test system: bovine microvessel endothelial cells (BMECs); test: Transport across BMEC monolayers in vitro; assay type: in vitro ADME
Experimental: In this example, BMECs were grown on 0.4 μm polycarbonate membranes in a petri dish coated with rat tail collagen and fibronectin. […] Briefly, each chamber was filled with 3 mL of PBSA and the donor chamber included KU-1/A4 (10 μM). A temperature of 37° C. was maintained with an external circulating water bath and chamber contents were stirred with Teflon coated magnetic stir bars driven by an external console. At various time points (5, 15, 30, 45, and 90 minutes), 100 μL aliquots were removed from the receiver side and replaced with 100 μL of blank PBSA warmed to 37° C. Samples of the donor solution were also taken for analysis. All samples were analyzed for concentration by RP-HPLC analysis using a Shimadzu dual pump HPLC system equipped with an Alltech (C18, 4.6 mm×150 mm) column. The solvent system consisted of H2O (solvent A) and methanol (solvent B). Analytical samples were eluted with 20% solvent B over 10 minutes at a flow rate of 0.90 mL/min and UV detection at 208 nm. […] The integrity of the cell monolayer was tested post experiment by monitoring the permeability of [^14C]-sucrose, a low permeability marker. Radioactive samples were analyzed by liquid scintillation counting.

P-glycoprotein (P-gp) = P-glycoprotein (P-gp) (Bos taurus, UniProt A0A3Q1MB23); test: Rhodamine 123 uptake assay in BMECs
Sequence of P-glycoprotein (P-gp) (A0A3Q1MB23 1-1267): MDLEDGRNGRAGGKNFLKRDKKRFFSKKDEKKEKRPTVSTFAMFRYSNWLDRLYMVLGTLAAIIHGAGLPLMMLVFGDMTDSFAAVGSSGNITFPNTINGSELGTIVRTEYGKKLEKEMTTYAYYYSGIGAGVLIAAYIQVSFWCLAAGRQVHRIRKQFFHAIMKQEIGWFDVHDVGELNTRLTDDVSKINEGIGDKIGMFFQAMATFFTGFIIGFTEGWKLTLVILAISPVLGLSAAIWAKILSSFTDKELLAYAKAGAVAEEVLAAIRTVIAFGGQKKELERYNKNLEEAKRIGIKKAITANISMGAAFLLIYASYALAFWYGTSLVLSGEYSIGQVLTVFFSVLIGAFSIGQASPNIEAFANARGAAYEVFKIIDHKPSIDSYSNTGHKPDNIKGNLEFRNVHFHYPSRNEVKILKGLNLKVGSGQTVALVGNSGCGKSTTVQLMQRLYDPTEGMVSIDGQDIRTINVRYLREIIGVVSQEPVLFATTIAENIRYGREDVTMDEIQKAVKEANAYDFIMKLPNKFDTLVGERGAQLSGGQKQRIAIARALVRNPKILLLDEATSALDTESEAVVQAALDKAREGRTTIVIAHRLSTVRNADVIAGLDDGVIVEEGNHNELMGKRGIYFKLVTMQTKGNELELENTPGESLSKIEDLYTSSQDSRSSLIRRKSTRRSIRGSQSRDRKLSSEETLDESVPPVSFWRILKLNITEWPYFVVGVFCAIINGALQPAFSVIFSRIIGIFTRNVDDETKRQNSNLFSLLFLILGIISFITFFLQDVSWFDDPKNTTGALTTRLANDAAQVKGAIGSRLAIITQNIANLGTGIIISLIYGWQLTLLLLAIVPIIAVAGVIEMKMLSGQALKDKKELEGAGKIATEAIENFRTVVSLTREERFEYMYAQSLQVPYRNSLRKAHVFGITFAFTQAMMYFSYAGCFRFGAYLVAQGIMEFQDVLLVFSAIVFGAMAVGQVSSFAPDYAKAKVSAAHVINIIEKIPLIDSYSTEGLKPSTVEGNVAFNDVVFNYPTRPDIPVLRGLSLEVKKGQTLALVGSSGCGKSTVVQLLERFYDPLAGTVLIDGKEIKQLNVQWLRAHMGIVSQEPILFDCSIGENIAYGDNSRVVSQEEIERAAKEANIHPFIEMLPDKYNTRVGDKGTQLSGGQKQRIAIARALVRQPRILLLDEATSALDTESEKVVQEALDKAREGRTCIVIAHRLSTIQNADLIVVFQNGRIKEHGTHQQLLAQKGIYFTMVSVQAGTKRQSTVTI
Experimental: Taxol (10 μM) was used as a positive p-glycoprotein substrate.

Q: Which results are given for `CO[C@@H]1[C@@H](O)[C@@H](O)[C@H](Oc2ccc3cc(NC(C)=O)c(=O)oc3c2)OC1(C)C` [KU-1/A4, N-(7-((2R,3R,4S,5R)-3,4-dihydroxy-5-methoxy-6,6-dimethyl-tetrahydro-2H-pyran-2-yloxy)-2-oxo-2H-chromen-3-yl)acetamide]?
A: androgen receptor levels [1]: drastically reduced levels of the androgen receptor at lower concentrations; neurotoxicity of compound alone (primary cortical neurons; 100 nM (20× the EC50)): did not result in any observed neurotoxicity; toxic effects in neuronal cells (primary cortical neurons; 10 μM, 72 hours): no toxic effects; toxicity of the drug alone to neurons (primary cortical neurons; primary neurons, drug alone): no toxicity; time until abluminal chamber concentration sufficed for full neuroprotective effects ([2]; 10 μM in donor chamber): ≤ 15 min; concentration in the receiving chamber ([2]; 10 μM in donor chamber, 90 minutes): 1200 nM; transport across BMECs ([2]; 10 μM in donor chamber, up to 90 minutes): time-dependent linear transport; receiving chamber concentration relative to concentration for 50% neuroprotection ([2]; 90 minutes): 200 fold; P-gp substrate (P-glycoprotein (P-gp)): not a substrate for P-gp; rhodamine 123 uptake (P-glycoprotein (P-gp); rhodamine 123 5 μM, Taxol 10 μM, KU-1/A4 up to 50 μM): no effect on uptake

Source: US9120774B2 (University of Kansas, priority 2009, dated 2015)
